In test [1] the test system is SW620 cells. The experiment in a line: Cell viability assay (Cell Counting Kit-8), KRAS G12V. Type of test: cell-based. The note with it: Homo sapiens, SW-620, 72 hrs incubation, CCK-8. How it is done:
(§1) The purpose of this cellular assay was to determine the effects of test compounds on the proliferation of human cancer cell lines NCI-H358 (ATCC-CRL5807) cells, AGS (ATCC-CRL-1739) cells, SW620 (ATCC-CCL-227) over a 3-day treatment period by quantifying the amount of NADPH present at endpoint using Cell Counting Kit-8.
(§2) Cells were seeded at 5,000 cells/well (NCI-H358), 2,000 cells/well (AGS) 2,000 cells/well (SW620) in 96-well assay plates (Corning-3699) and incubated overnight. On the day of the assay, diluted compounds were then added in a final concentration of 0.5% DMSO. After 72 hrs incubation, a tenth of the volume of cell counting kit 8 (Dnjindo-CK04) was added into each well. Read the signal (OD450 minus OD650) using EnVision after 2 hrs incubation. IC50 was determined by fitting a 4-parameter sigmoidal concentration response model.

Test [2] has as its target KRAS G12C-BRAF complex (Homo sapiens (Human), UniProt P01116+P62937, G12C). Briefly: KRAS-BRAF with CYPA (500 nM) interaction assay (TR-FRET), G12C. The class given is binding. The note with it: GMPPNP loaded 6His-KRAS, GST-BRAF RBD, 3 hours. How it is done: (§3) KRAS-BRAF with CYPA (500 nM) Interaction Assay
(§4) In this example, TR-FRET was also used to measure the compound or compound-CYPA dependent disruption of the KRAS G12C-BRAF complex. This protocol was also used to measure disruption of KRAS G12D or KRAS G12V binding to BRAF by a compound of the invention, respectively. In assay buffer containing 25 mM HEPES PH=7.4 (4-(2-hydroxyethyl)-1-piperazineethanesulfonic acid, Thermo, 15630080), 0.002% Tween20, 0.1% BSA, 100 mM NaCl, 5 mM MgCl2, 10 μM GMPPNP (Guanosine 5′-[β,γ-imido]triphosphate trisodium salt hydrate, Sigma, G0635), tagless CYPA, GMPPNP loaded 6His-KRAS proteins, and GST-BRAF^RBD were mixed in a well of a 384-well assay plate at final concentrations of 50 nM, 6.25 nM and 1 nM, respectively. Compound was present in plate wells as a 16-point 3-fold dilution series starting at a final concentration of 10 μM and incubated for 3 hours. A mixture of MAb Anti-6His-XL665 (Cisbio, 61HISXLB) and Mab anti-GST-TB cryptate (Cisbio, 61GSTTLB) was then added at a final concentration of 6.67 nM and 0.21 nM, respectively, and the plate was incubated for an additional 1.5 hours. TR-FRET signal was read on a PHERstar FSX microplate reader (Ex320 nm, Em 665/615 nm). Compounds that facilitate disruption of the KRAS-BRAF complex were identified as those eliciting a decrease in the TR-FRET ratio relative to DMSO control wells.
Background: In TR-FRET formats the signal depends on donor and acceptor labels being close together.

The test system of test [3] is NCI-H358 cells. The experiment in a line: Cell viability assay (Cell Counting Kit-8), KRAS G12C. The class given is cell-based. The note with it: Homo sapiens, 72 hrs incubation, CCK-8. As for the experimental part:
as §1, §2
In general terms: Tetrazolium assays rely on reduction of a dye to a coloured formazan, in cell work by metabolically active cells.

Test [4] deals with AGS cells. The experiment in a line: Cell viability assay (Cell Counting Kit-8), KRAS G12D. Type of test: cell-based. To be noted: Homo sapiens, 72 hrs incubation, CCK-8. As for the experimental part:
as §1, §2

Test [5] concerns phosphorylation of ERK, KRAS G12D in AGS cells. The experiment in a line: pERK inhibition assay, KRAS G12D. Type of test: cell-based. The note with it: Homo sapiens, 4 hours of incubation. As for the experimental part: (§5) This assay is to measure the ability of test compounds in inhibiting the phosphorylation of ERK, the downstream signaling of KRAS G12C in NCI-H358 cells, KRAS G12D in AGS cells, and KRAS G12V in SW620. NCI-H358 (ATCC-CRL5807) cells, AGS (ATCC-CRL-1739) cells, SW620 (ATCC-CCL-227) cells were all grown and maintained using RPMI-1640 medium (Thermo Fisher Scientific) with 10% fetal bovine serum and 1% penicillin/streptomycin. On the day prior to compound addition, cells were plated in tissue culture-treated 96 well plates (Corning-3699) at a density of 30,000 cell/well, 20,000 cell/well, 30,000 cell/well for NCI-H358, AGS and SW620 respectively, and allowed for attachment overnight. Diluted compounds were then added in a final concentration of 0.5% DMSO. After 4 hours of incubation, the medium was removed, 100 μL of 4% formaldehyde was added, and the assay plates were incubated at room temperature for 20 minutes. The plates were then washed once with phosphate buffered saline (PBS), and permeabilized with 100 μL of chilled methanol for 10 minutes. Non-specific antibody binding to the plates was blocked using 50 μL 1×BSA blocking buffer (Thermo-37520, 10-fold dilution by Phosphate-Buffered Saline Tween (PBST) for at least 1 hour at room temperature.
(§6) The amount of phosphor-ERK was determined using an antibody specific for phosphorylated form of ERK. Primary antibody (pERK, CST-4370, Cell Signaling Technology) was diluted 1:300 in blocking buffer, with 50 μL aliquoted to each well, and incubated overnight at 4° C. Cells was washed five times for 5 minutes with PBST. Secondary antibody (HRP-linked anti-rabbit IgG, CST-7074, Cell Signaling Technology) was diluted 1:1000 in blocking buffer, and 50 μL was added to each well and incubated 1-2 hrs at room temperature. Cells was washed 5 times for 5 minutes with PBST, 100 μL TMB ELISA substrate (abcam-ab171523) were added and gently shake for 20 minutes. 50 μL stop solution (abcam-ab171529) were added, and then read the signal (OD450) by EnVision.
(§7) IC50 was determined by fitting a 4-parameter sigmoidal concentration response model.

Test [6] deals with KRAS G12V binding to BRAF (Homo sapiens (Human), UniProt P01116+P62937, G12V). The experiment in a line: KRAS-BRAF with CYPA (500 nM) interaction assay (TR-FRET), G12V. The note with it: GMPPNP loaded 6His-KRAS, GST-BRAF RBD, 3 hours. As for the experimental part:
as §3, §4

The test system of test [7] is phosphorylation of ERK, KRAS G12V in SW620. The experiment in a line: pERK inhibition assay, KRAS G12V. Type of test: cell-based. To be noted: Homo sapiens, SW-620; SW620 cells, 4 hours of incubation. How it is done: as §5, §6, §7
Test [8] has as its target KRAS G12D binding to BRAF (Homo sapiens (Human), UniProt P01116+P62937, G12D). Briefly: KRAS-BRAF with CYPA (500 nM) interaction assay (TR-FRET), G12D. The note with it: GMPPNP loaded 6His-KRAS, GST-BRAF RBD, 3 hours. As for the experimental part: as §3, §4
Test [9] has as its system phosphorylation of ERK, KRAS G12C in NCI-H358 cells. The experiment in a line: pERK inhibition assay, KRAS G12C. The class given is cell-based. To be noted: Homo sapiens, 4 hours of incubation. How it is done:
as §5, §6, §7

Our source for the IC50 values is patent US20250250284A1, “MACROCYCLE COMPOUNDS USEFUL AS KRAS INHIBITORS” (Hoffmann-La Roche Inc., priority 2022, published 2025).

Some results are limits rather than exact numbers.

KRAS G12V binding to BRAF, sequence (P01116-2 other isoform, or with tags, fused parts or gaps G12V): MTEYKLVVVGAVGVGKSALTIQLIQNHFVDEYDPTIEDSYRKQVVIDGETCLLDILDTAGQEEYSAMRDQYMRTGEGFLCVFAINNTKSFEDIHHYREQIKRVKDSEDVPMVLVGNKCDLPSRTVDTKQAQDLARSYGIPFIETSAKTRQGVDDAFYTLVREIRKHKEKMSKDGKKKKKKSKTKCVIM
KRAS G12V binding to BRAF, sequence (P62937 whole entry): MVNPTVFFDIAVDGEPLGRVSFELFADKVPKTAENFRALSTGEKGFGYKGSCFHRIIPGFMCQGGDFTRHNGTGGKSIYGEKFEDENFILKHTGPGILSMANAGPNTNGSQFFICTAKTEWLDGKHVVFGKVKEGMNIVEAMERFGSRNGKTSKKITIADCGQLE
KRAS G12C-BRAF complex, sequence (P01116-2 other isoform, or with tags, fused parts or gaps G12C): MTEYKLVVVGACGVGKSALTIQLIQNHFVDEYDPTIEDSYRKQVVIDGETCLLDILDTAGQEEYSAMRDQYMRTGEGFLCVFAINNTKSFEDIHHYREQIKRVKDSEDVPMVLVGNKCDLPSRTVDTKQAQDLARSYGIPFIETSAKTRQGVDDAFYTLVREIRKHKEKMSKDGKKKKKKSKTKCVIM
KRAS G12C-BRAF complex, sequence (P62937 whole entry): as the sequence (P62937 whole entry) above
KRAS G12D binding to BRAF, sequence (P01116-2 other isoform, or with tags, fused parts or gaps G12D): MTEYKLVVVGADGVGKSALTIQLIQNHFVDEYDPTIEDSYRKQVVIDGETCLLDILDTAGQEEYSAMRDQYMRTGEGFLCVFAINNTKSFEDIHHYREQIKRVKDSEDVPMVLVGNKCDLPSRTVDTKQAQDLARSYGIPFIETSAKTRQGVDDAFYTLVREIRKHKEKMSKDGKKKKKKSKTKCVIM
KRAS G12D binding to BRAF, sequence (P62937 whole entry): as the sequence (P62937 whole entry) above

On to `CCn1c(-c2cc(N3CCN(C)CC3)cnc2[C@H](C)OC)c2c3cc(c(F)cc31)-c1csc(n1)C[C@H](NC(=O)[C@H]1C[C@@H]1C(F)F)C(=O)N1CCC[C@H](N1)C(=O)OCC(C)(C)C2` (atropisomer, axis not shown; (M)) [Example 3, (1S,2S)-2-(difluoromethyl)-N-[(7S,13S)-21-ethyl-24-fluoro-(20M)-20-[2-[(1S)-1-methoxyethyl]-5-(4-methylpiperazin-1-yl)-3-pyridyl]-17,17-dimethyl-8,14-dioxo-15-oxa-4-thia-9,21,27,28-tetrazapentacyclo[17.5.2.1^2,5.1^9,13.0^22,26]octacosa-1(25),2,5(28),19,22(26),23-hexaen-7-yl]cyclopropanecarboxamide], for which the IC50 (as a rule, the concentration that inhibits the measured activity by half) in test [1] came to 0.008 µM; in test [2], 0.196 µM; in test [3], 0.0116 µM; in [4] it was 0.197 µM; in test [5], 0.029 µM; in test [6] it was 0.243 µM. The IC50 in [7] was determined as 0.005 µM; in test [8], 1.72 µM; in test [9], 0.011 µM.
`CO[C@@H](C)c1ncc(N2CCN(C)CC2)cc1-c1c2c3cc(c(F)cc3n1CC(F)(F)F)-c1csc(n1)C[C@H](NC(=O)[C@H]1C[C@@H]1C)C(=O)N1CCC[C@H](N1)C(=O)OCC(C)(C)C2` (atropisomer, axis not shown; (M)) [Example 4, (1S,2S)—N-[(7S,13S)-24-fluoro-(20M)-20-[2-[(1S)-1-methoxyethyl]-5-(4-methylpiperazin-1-yl)-3-pyridyl]-17,17-dimethyl-8,14-dioxo-21-(2,2,2-trifluoroethyl)-15-oxa-4-thia-9,21,27,28-tetrazapentacyclo[17.5.2.1^2,5.1^9,13.0^22,26]octacosa-1(25),2,5(28),19,22(26),23-hexaen-7-yl]-2-methyl-cyclopropanecarboxamide]: the IC50 in [1] came out at 0.013 µM; in [2], 0.036 µM; in [3], 0.019 µM; in [4], 1.27 µM; in test [5] it was 0.047 µM; in test [6], 0.095 µM. Moreover, the IC50 in test [7] amounted to 0.007 µM; in test [8], 0.544 µM; in test [9], 0.02 µM.
For `CCn1c(-c2cc(N3CCN(CC(F)(F)F)CC3)cnc2[C@H](C)OC)c2c3cc(c(F)cc31)-c1csc(n1)C[C@H](NC(=O)[C@H]1C[C@@H]1C)C(=O)N1CCC[C@H](N1)C(=O)OCC(C)(C)C2` (atropisomer, axis not shown; (M)) [Example 7, (1S,2S)—N-[(7S,13S)-21-ethyl-24-fluoro-(20M)-20-[2-[(1S)-1-methoxyethyl]-5-[4-(2,2,2-trifluoroethyl)piperazin-1-yl]-3-pyridyl]-17,17-dimethyl-8,14-dioxo-15-oxa-4-thia-9,21,27,28-tetrazapentacyclo[17.5.2.1^2,5.1^9,13.0^22,26]octacosa-1(25),2,5(28),19,22(26),23-hexaen-7-yl]-2-methyl-cyclopropanecarboxamide], the IC50 in [1] came out at 0.027 µM; in test [2] it was 0.192 µM; in test [3], 0.074 µM; in test [4], 0.389 µM; in test [5], 0.115 µM; in test [6], 0.697 µM. For the same molecule, the IC50 in [7] is 0.02 µM; in test [8], above 10 µM; in test [9] it was 0.071 µM.
In the case of `CCn1c(-c2cc(N3CCOCC3)cnc2[C@H](C)OC)c2c3cc(c(F)cc31)-c1csc(n1)C[C@H](NC(=O)[C@H]1C[C@@H]1C)C(=O)N1CCC[C@H](N1)C(=O)OCC(C)(C)C2` (atropisomer, axis not shown; (M)) [Example 8, (1S,2S)—N-[(7S,13S)-21-ethyl-24-fluoro-(20M)-20-[2-[(1S)-1-methoxyethyl]-5-morpholino-3-pyridyl]-17,17-dimethyl-8,14-dioxo-15-oxa-4-thia-9,21,27,28-tetrazapentacyclo[17.5.2.1^2,5.1^9,13.0^22,26]octacosa-1(25),2,5(28),19,22(26),23-hexaen-7-yl]-2-methyl-cyclopropanecarboxamide], the IC50 in [1] was found to be 0.013 µM; in test [2] it was 0.16 µM; in test [3], 0.016 µM; in test [4] it was 1.49 µM; in test [5], 0.056 µM; in [6], 0.143 µM. The IC50 was 0.008 µM in test [7], 1.67 µM in [8] and 0.023 µM in test [9].
`CO[C@@H](C)c1ncc(N2CCN(CC(F)(F)F)CC2)cc1-c1c2c3cc(c(F)cc3n1CC(F)(F)F)-c1csc(n1)C[C@H](NC(=O)[C@H]1C[C@@H]1C)C(=O)N1CCC[C@H](N1)C(=O)OCC(C)(C)C2` (atropisomer, axis not shown; (M)) [Example 9, (1S,2S)—N-[(7S,13S)-24-fluoro-(20M)-20-[2-[(1S)-1-methoxyethyl]-5-[4-(2,2,2-trifluoroethyl)piperazin-1-yl]-3-pyridyl]-17,17-dimethyl-8,14-dioxo-21-(2,2,2-trifluoroethyl)-15-oxa-4-thia-9,21,27,28-tetrazapentacyclo[17.5.2.1^2,5.1^9,13.0^22,26]octacosa-1(25),2,5(28),19,22(26),23-hexaen-7-yl]-2-methyl-cyclopropanecarboxamide]: the IC50 was determined as 0.04 µM in test [1]; 0.09 µM in test [2]; 0.224 µM in [3]; 0.704 µM in test [4]; 0.161 µM in test [5]; 0.171 µM in test [6]. For the same molecule, the values for the IC50 in test [7], in test [8] and in test [9] were 0.022 µM, 0.66 µM and 0.047 µM, respectively.
